According to ChEMBL document CHEMBL5678818, “Discovery of potent SOS1 inhibitors that block RAS activation via disruption of the RAS-SOS1 interaction” (Proc Natl Acad Sci U S A, 2019):

Assays:
[1] = molecular target: T1, Serine/threonine-protein kinase Nek10 (Homo sapiens) (UniProt Q6ZWH5); assay: Inhibition of NEK10 (unknown origin) assessed as residual activity at 100 nM by KINOMEscan analysis relative to control
T1 sequence (whole entry): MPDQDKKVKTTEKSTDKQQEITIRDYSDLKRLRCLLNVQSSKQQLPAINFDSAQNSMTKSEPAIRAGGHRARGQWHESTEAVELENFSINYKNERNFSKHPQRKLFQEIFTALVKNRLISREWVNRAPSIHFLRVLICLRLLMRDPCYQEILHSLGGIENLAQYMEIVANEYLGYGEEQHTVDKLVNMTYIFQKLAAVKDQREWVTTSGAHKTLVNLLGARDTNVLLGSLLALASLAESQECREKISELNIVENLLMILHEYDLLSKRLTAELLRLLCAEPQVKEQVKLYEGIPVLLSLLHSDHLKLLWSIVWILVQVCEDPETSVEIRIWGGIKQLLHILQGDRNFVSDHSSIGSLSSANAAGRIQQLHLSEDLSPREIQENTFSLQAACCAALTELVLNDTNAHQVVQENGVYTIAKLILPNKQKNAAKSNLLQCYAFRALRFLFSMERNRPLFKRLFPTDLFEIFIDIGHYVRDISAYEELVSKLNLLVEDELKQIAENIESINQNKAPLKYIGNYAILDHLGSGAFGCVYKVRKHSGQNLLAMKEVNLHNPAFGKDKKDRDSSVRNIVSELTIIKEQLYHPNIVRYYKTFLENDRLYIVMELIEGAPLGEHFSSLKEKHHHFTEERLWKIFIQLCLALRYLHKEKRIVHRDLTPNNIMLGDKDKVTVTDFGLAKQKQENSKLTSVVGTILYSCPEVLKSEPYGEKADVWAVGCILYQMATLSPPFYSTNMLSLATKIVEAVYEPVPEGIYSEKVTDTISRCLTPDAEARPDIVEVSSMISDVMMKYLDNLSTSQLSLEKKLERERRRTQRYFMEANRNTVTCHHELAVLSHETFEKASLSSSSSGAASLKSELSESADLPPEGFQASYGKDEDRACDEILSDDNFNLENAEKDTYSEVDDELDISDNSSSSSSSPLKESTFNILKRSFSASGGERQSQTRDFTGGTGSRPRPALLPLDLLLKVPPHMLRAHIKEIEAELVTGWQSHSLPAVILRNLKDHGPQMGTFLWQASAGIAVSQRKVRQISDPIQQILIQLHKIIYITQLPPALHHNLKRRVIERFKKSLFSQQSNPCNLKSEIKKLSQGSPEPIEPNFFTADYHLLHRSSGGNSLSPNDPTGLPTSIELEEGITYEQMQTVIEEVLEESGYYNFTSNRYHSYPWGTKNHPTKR

[2] = molecular target: T2, Tyrosine-protein kinase JAK3 (Homo sapiens) (UniProt P52333); assay: Inhibition of JAK3 JH1 catalytic domain (unknown origin) assessed as residual activity at 100 nM by KINOMEscan analysis relative to control
T2 sequence (whole entry): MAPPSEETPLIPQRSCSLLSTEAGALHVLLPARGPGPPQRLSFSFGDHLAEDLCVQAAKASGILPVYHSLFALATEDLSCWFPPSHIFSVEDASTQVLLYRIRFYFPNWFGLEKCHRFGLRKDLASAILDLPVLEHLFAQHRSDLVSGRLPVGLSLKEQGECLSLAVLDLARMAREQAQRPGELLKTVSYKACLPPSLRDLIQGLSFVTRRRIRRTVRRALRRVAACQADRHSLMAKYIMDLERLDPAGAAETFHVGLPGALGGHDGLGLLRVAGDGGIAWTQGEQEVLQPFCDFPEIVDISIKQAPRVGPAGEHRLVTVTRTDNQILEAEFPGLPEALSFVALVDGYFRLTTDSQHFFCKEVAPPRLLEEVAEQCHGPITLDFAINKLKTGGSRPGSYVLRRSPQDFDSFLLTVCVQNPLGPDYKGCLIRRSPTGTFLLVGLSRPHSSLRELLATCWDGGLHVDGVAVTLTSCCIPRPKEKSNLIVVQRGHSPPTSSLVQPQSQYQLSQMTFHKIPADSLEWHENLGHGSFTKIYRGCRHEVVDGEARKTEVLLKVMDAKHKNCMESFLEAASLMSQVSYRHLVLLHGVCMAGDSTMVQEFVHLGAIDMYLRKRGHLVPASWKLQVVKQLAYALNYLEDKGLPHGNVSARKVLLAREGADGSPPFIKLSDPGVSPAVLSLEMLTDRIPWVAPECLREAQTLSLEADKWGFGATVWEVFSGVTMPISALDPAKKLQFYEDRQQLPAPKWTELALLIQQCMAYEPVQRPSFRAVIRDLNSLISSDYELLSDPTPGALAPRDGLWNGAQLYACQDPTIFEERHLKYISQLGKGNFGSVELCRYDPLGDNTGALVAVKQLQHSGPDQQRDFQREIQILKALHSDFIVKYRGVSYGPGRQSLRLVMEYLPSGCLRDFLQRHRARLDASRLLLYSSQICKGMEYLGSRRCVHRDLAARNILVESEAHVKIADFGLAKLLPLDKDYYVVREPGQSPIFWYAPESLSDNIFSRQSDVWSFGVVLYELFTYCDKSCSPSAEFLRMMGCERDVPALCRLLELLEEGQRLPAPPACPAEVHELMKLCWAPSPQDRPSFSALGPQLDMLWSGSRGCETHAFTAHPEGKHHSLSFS

[3] = species: Homo sapiens; assay: Inhibition of N-terminal GST-tagged recombinant human SOS1 L901K mutant (564 to 1049 residues) expressed in Escherichia coli assessed as reduction in KRAS G12C mutant activation at 10 uM by HTRF analysis relative to control
[4] = system: Epidermal growth factor receptor (Homo sapiens), P00533 [L861Q]; assay: Inhibition of EGFR L861Q mutant (unknown origin) assessed as residual activity at 100 nM by KINOMEscan analysis relative to control
[5] = species: Homo sapiens; assay: Inhibition of N-terminal GST-tagged recombinant human SOS1 N879A mutant (564 to 1049 residues) expressed in Escherichia coli assessed as reduction in KRAS G12C mutant activation at 10 uM by HTRF analysis relative to control
[6] = molecular target: Casein kinase I isoform epsilon (Homo sapiens) (UniProt P49674); assay: Inhibition of CSNK1E (unknown origin) assessed as residual activity at 100 nM by KINOMEscan analysis relative to control
Casein kinase I isoform epsilon (Homo sapiens), sequence (P49674 whole entry, looked up, canonical isoform): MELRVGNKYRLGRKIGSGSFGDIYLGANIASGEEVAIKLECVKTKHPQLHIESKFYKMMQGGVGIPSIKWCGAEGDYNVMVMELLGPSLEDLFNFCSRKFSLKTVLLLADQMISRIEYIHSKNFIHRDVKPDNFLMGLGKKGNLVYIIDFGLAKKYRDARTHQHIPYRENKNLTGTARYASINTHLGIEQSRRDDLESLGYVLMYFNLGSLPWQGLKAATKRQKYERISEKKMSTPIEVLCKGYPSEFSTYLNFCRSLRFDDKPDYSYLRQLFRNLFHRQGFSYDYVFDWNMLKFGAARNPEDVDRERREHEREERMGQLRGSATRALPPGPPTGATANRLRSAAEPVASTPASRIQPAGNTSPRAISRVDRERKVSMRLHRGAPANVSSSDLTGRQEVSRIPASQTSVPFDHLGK

[7] = molecular target: 5'-AMP-activated protein kinase catalytic subunit alpha-1 (Homo sapiens) (UniProt Q13131); assay: Inhibition of AMPK-alpha1 (unknown origin) assessed as residual activity at 100 nM by KINOMEscan analysis relative to control
5'-AMP-activated protein kinase catalytic subunit alpha-1 (Homo sapiens), sequence (Q13131 whole entry, looked up): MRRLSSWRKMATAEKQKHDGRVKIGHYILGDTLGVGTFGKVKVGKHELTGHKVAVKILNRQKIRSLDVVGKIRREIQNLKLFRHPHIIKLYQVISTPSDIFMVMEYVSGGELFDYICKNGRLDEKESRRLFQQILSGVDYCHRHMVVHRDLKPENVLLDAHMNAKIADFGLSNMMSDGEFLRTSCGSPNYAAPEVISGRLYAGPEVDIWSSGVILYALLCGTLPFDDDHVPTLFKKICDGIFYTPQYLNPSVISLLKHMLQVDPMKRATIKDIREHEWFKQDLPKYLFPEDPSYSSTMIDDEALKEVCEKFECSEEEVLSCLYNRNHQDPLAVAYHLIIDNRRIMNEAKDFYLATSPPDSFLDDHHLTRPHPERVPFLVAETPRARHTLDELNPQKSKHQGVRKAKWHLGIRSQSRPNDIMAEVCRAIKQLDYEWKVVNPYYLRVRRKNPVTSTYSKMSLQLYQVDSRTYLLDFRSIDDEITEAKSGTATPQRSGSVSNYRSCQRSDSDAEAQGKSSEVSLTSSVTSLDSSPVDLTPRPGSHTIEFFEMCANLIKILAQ

COc1cc2ncnc(N[C@H](C)c3cccc4ccccc34)c2cc1OC
Activity [1]: 75%
Activity [2]: 84%
inhibition [3]: 38%
Activity [4]: 95%
inhibition [5]: 37%
Activity [6]: 97%
Activity [7]: 92%
